How the values were obtained:
[1] = molecular target: T1, OCT2 (Homo sapiens, UniProt O15244); test: in vitro; settings: for % Inhibition of OCT2-dependent MF uptake at 20 µM (mean ± SEM) / % Inhibition of OCT2-dependent MF uptake at 200 µM (mean ± SEM) / inhibition at 3 min, 20 µM / inhibition at 3 min, 200 µM: human
Method: (§1) For the transport assays HEK cell lines stably transfected with human OCT2 (HEK-OCT2) or the vector only (HEK-VC) were used. The HEK-OCT2 cell line was established and characterized previously. HEK-OCT2 and HEK-VC cells were seeded in poly-D-lysine (Sigma Aldrich, Taufkirchen, Germany) coated 48-well-plates at a density of 1.2 x 10^5 cells/well. […] Uptake was stopped by washing the cells three times with ice-cold uptake buffer. Afterwards, cells were lysed with 5 mM Tris buffer (pH 7.3) containing 0.1% Triton X-100. The intracellular accumulation of radioactivity was determined by liquid scintillation counting (PerkinElmer, Rodgau-Jügesheim, Germany) and protein concentration of each lysate was measured with bicinchonic acid assay (BCA Protein Assay Kit, Thermo Fisher Scientific, Waltham, MA, USA). We performed two to eight experiments each on at least two separate days, i.e., n = 4–16.
Experimental half-maximal inhibitory concentrations (IC50 values) were measured as the substrate uptake in the presence of increasing concentrations of test drugs. These experiments were performed as described above (three experiments each on two separate days, i.e., n = 6). IC50 values were calculated with GraphPad Prism 5.0 (GraphPad Software, San Diego, CA, USA). IC50 was estimated by a sigmoidal inhibition model and was fit to the equation V = V 0 / (1 + (I / IC50 ) ^n ) by nonlinear regression. V is the net uptake in the presence of the inhibitor, V 0 is the net uptake in the absence of the inhibitor, I is the concentration of the inhibitor and n is the slope.

[2] = molecular target: T1, OCT2; test: Inhibition of OCT2-mediated [3H]MPP+ uptake in HEK-OCT2 cells; settings: for % Inhibition of OCT2-dependent MPP+ uptake at 20 µM (mean ± SEM): test drug 20 µM; for % Inhibition of OCT2-dependent MPP+ uptake at 20 µM (mean ± SEM) / % Inhibition of OCT2-dependent MPP+ uptake at 200 µM (mean ± SEM): MPP+ 50 μM, 3 min, net uptake HEK-OCT2 minus HEK-VC; for % Inhibition of OCT2-dependent MPP+ uptake at 200 µM (mean ± SEM): test drug 200 µM; for inhibition at 3 min, 20 µM / inhibition at 3 min, 200 µM: human
Method: as §1

[3] = pH 7.3, probe [14C]metformin, 1000 µM, % Inhibition of OCT2-dependent MF uptake at 20 µM (mean ± SEM), test drug 20 µM, metformin 1000 μM, 3 min, net uptake HEK-OCT2 minus HEK-VC
[4] = pH 7.3, probe [14C]metformin, 1000 µM, % Inhibition of OCT2-dependent MF uptake at 200 µM (mean ± SEM), test drug 200 µM, metformin 1000 μM, 3 min, net uptake HEK-OCT2 minus HEK-VC

T1 sequence (O15244 whole entry): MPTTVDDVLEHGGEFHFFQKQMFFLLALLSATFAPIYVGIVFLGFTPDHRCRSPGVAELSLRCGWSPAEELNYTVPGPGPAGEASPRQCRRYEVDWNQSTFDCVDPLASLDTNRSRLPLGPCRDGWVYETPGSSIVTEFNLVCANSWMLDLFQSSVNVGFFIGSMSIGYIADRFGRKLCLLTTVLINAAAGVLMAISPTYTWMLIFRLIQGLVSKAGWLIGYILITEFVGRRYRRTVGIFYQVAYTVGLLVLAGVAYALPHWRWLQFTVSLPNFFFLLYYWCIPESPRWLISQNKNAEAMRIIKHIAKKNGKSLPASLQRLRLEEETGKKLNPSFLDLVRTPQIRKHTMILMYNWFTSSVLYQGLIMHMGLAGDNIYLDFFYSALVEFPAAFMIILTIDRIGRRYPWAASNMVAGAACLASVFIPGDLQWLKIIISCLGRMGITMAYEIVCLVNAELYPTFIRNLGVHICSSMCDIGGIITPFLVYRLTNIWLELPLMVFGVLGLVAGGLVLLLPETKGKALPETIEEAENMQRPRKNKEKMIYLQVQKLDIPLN

Row | SMILES | % Inhibition of OCT2-dependent MF uptake at 20 µM (mean ± SEM) ([1]; pH 7.3) | % Inhibition of OCT2-dependent MF uptake at 200 µM (mean ± SEM) ([1]; pH 7.3) | % Inhibition of OCT2-dependent MPP+ uptake at 20 µM (mean ± SEM) [2] [%] | % Inhibition of OCT2-dependent MPP+ uptake at 200 µM (mean ± SEM) [2] [%] | further results
1 | CN1CCN2c3ncccc3Cc3ccccc3C2C1 (centres unmarked) [Mirtazapine] | 73.3 ± 3.0 | 90.7 ± 3.9 | -4.8 ± 4.0 | 57.6 ± 6.1 | –
2 | CN[C@H]1CC[C@@H](c2ccc(Cl)c(Cl)c2)c2ccccc21 [Sertraline] | 88.4 ± 2.1 | 100.5 ± 0.7 | 43.6 ± 2.9 | 96.1 ± 1.7 | IC50 values, OCT2-mediated metformin transport (in words) ([1]; potent inhibitors, confirmed previous findings [19]-[21]): low micromolar range
3 | CC[C@H](C)C(=O)O[C@H]1C[C@H](O)C=C2C=C[C@H](C)[C@H](CC[C@@H](O)C[C@@H](O)CC(=O)O)[C@H]21 [Pravastatin] | -26.3 ± 11.1 | -11.1 ± 11.1 | -30.2 ± 5.5 | -15.0 ± 5.2 | –
4 | CC(C)n1c(/C=C/C(O)CC(O)CC(=O)O)c(-c2ccc(F)cc2)c2ccccc21 (centres unmarked) [Fluvastatin] | -21.1 ± 10.3 | 32.5 ± 8.1 | -10.1 ± 6.1 | 5.8 ± 9.1 | –
5 | O=C(CCCN1CCC(O)(c2ccc(Cl)cc2)CC1)c1ccc(F)cc1 [Haloperidol] | 6.4 ± 8.9 | 66.9 ± 5.3 | -11.2 ± 5.0 | -10.6 ± 5.1 | –
6 | CN(C)CCCC1(c2ccc(F)cc2)OCc2cc(C#N)ccc21 (centres unmarked) [Citalopram] | 66.6 ± 7.9 | 78.9 ± 8.4 | 40.0 ± 9.9 | 75.2 ± 9.7 | –
7 | CCCc1nc(C(C)(C)O)c(C(=O)O)n1Cc1ccc(-c2ccccc2-c2nnn[nH]2)cc1 [Olmesartan] | – | – | – | – | inhibition at 3 min, 20 µM [1, 3]: -0.1 ± 10.9%; inhibition at 3 min, 200 µM [1, 4]: 21.1 ± 7.3%; inhibition at 3 min, 20 µM ([2]; pH 7.3, probe [3H]MPP+, 50 µM): -23.8 ± 7.1%; inhibition at 3 min, 200 µM ([2]; pH 7.3, probe [3H]MPP+, 50 µM): -21.9 ± 13.3%
8 | CCCCc1nc(Cl)c(CO)n1Cc1ccc(-c2ccccc2-c2nn[nH]n2)cc1 [Losartan] | -9.3 ± 10.4 | 7.4 ± 8.2 | -41.8 ± 8.1 | -59.5 ± 6.1 | –
9 | Cc1ncsc1CCCl [Clomethiazole] | -9.2 ± 6.8 | 28.7 ± 3.9 | -6.7 ± 9.2 | -147.3 ± 23.7 | –
10 | C[C@H]1O[C@@H](O[C@H]2[C@@H](O)C[C@H](O[C@H]3[C@@H](O)C[C@H](O[C@H]4CC[C@@]5(C)[C@H](CC[C@@H]6[C@@H]5CC[C@]5(C)[C@@H](C7=CC(=O)OC7)CC[C@]65O)C4)O[C@@H]3C)O[C@@H]2C)C[C@H](O)[C@@H]1O [Digitoxin] | 28.7 ± 7.9 | 32.8 ± 2.9 | -32.6 ± 3.8 | -32.4 ± 8.5 | –
11 | CCCCC1=NC2(CCCC2)C(=O)N1Cc1ccc(-c2ccccc2-c2nnn[nH]2)cc1 [Irbesartan] | -16.2 ± 14.4 | -14.2 ± 17.8 | -18.9 ± 12.4 | -50.7 ± 14.1 | –
12 | COC(=O)C1=C(C)NC(C)=C(C(=O)OC(C)(C)CN(C)CCC(c2ccccc2)c2ccccc2)C1c1cccc([N+](=O)[O-])c1 (centres unmarked) [Lercanidipine] | – | – | – | – | inhibition at 3 min, 20 µM [1, 3]: 7.8 ± 3.8%; inhibition at 3 min, 200 µM [1, 4]: -20.4 ± 11.1%; inhibition at 3 min, 20 µM ([2]; pH 7.3, probe [3H]MPP+, 50 µM): -13.3 ± 8.6%; inhibition at 3 min, 200 µM ([2]; pH 7.3, probe [3H]MPP+, 50 µM): -9.3 ± 3.6%
13 | CCCCC(=O)N(Cc1ccc(-c2ccccc2-c2nnn[nH]2)cc1)[C@H](C(=O)O)C(C)C [Valsartan] | – | – | – | – | inhibition at 3 min, 20 µM ([1]; pH 7.3): -41.7 ± 1.8%; inhibition at 3 min, 200 µM ([1]; pH 7.3): -12.9 ± 3.6%; inhibition at 3 min, 20 µM ([2]; pH 7.3): -77.2 ± 6%; inhibition at 3 min, 200 µM ([2]; pH 7.3): -82.1 ± 9.9%

— PMC4556614 (PLoS ONE, 2015)
